From ChEMBL document CHEMBL5154681, “Small Amphiphilic Peptides: Activity Against a Broad Range of Drug-Resistant Bacteria and Structural Insight into Membranolytic Properties” (J Med Chem, 2022)
≈ marks a conversion by molar mass, not a printed value. Calls of active or inactive are those of the source. No cut-off for these calls is given here. Square brackets hold non-standard residues; d marks the D form. Peptide text beside a SMILES is read from it. Dip = N[C@H](C(=O)O)C(c1ccccc1)c1ccccc1

Columns and labels:
[1] = (§1) Hemolytic activity in human RBC assessed as hemolysis incubated for 2 hrs by spectrophotometer analysis; format: toxicity, cell-based, Erythrocyte; conditions: human red blood cells (erythrocytes)
Staphylococcus aureus [2] = assay: Antibacterial activity against methicillin resistant Staphylococcus aureus ATCC BAA-1556 incubated for 24 hrs by microtiter plate method; format: functional
Staphylococcus aureus [3] = assay: Antibacterial activity against Staphylococcus aureus ATCC 29213 incubated for 24 hrs by microtiter plate method; format: functional
Pseudomonas aeruginosa [4] = assay: Antibacterial activity against Pseudomonas aeruginosa ATCC 27883 incubated for 24 hrs by microtiter plate method; format: functional
Escherichia coli [5] = assay: Antibacterial activity against Escherichia coli ATCC 25922 incubated for 24 hrs by microtiter plate method; format: functional
Enterococcus faecium [6] = assay: Antibacterial activity against Enterococcus faecium ATCC 27270 incubated for 24 hrs by microtiter plate method; format: functional
Enterococcus faecium [7] = assay: Antibacterial activity against vancomycin-resistant Enterococcus faecium ATCC 700221 incubated for 24 hrs by microtiter plate method; format: functional
Enterococcus faecalis [8] = assay: Antibacterial activity against Enterococcus faecalis ATCC 29212 incubated for 24 hrs by microtiter plate method; format: functional
Enterococcus faecalis [9] = assay: Antibacterial activity against vancomycin-resistant Enterococcus faecalis ATCC 51575 incubated for 24 hrs by microtiter plate method; format: functional
Streptococcus pneumoniae [10] = assay: Antibacterial activity against […] ATCC 49619 incubated for 24 hrs by microtiter plate method; format: functional
Streptococcus pneumoniae [11] = assay: Antibacterial activity against multidrug resistant […] ATCC 700677 incubated for 24 hrs by microtiter plate method; format: functional
Bacillus subtilis = assay: Antibacterial activity against Bacillus subtilis ATCC 6633 incubated for 24 hrs by microtiter plate method; format: functional
Bacillus cereus = assay: Antibacterial activity against Bacillus cereus ATCC 13061 incubated for 24 hrs by microtiter plate method; format: functional
Escherichia coli [12] = assay: Antibacterial activity against Escherichia coli NDM-1-resistant ATCC BAA-2452 incubated for 24 hrs by microtiter plate method; format: functional
Klebsiella pneumoniae [13] = assay: Antibacterial activity against Klebsiella pneumoniae ATCC 13883 […] incubated for 24 hrs by microtiter plate method; format: functional
Klebsiella pneumoniae [14] = assay: Antibacterial activity against carbapenem-resistant Klebsiella pneumoniae ATCC BAA-2470 incubated for 24 hrs by microtiter plate method; format: functional
Acinetobacter baumannii = assay: Antibacterial activity against ciprofloxacin resistance Acinetobacter baumannii ATCC BAA1605 incubated for 24 hrs by microtiter plate method; format: functional
Pseudomonas aeruginosa [15] = assay: Antibacterial activity against Pseudomonas aeruginosa ATCC 10145 incubated for 24 hrs by microtiter plate method; format: functional
Pseudomonas aeruginosa [16] = assay: Antibacterial activity against imipenem resistant Pseudomonas aeruginosa ATCC BAA-1744 incubated for 24 hrs by microtiter plate method; format: functional
[17] = Selectivity ratio of MIC for antibacterial activity against Klebsiella pneumoniae ATCC 13883 to MIC for antibacterial activity against carbapenem-resistant Klebsiella pneumoniae ATCC BAA-2470; format: functional
[18] = Selectivity ratio of MIC for antibacterial activity against Pseudomonas aeruginosa ATCC 10145 to MIC for antibacterial activity against imipenem-resistant Pseudomonas aeruginosa ATCC BAA-1744; format: functional
Erythrocyte = assay: as §1; format: toxicity, cell-based; conditions: erythrocyte, 2 h
Staphylococcus aureus [19] = assay: Antibacterial activity against methicillin resistant Staphylococcus aureus ATCC BAA-1556 incubated for 24 hrs; format: functional
Staphylococcus aureus [20] = assay: Antibacterial activity against methicillin resistant Staphylococcus aureus ATCC BAA-1556 after 24 hrs in presence of 150 mM of NaCl by microtiter plate method; format: functional
Staphylococcus aureus [21] = assay: Antibacterial activity against methicillin resistant Staphylococcus aureus ATCC BAA-1556 after 24 hrs in presence of 4.5 mM of KCl by microtiter plate method; format: functional
Staphylococcus aureus [22] = assay: Antibacterial activity against methicillin resistant Staphylococcus aureus ATCC BAA-1556 after 24 hrs in presence of 6 mM of NH4Cl by microtiter plate method; format: functional
Staphylococcus aureus [23] = assay: Antibacterial activity against methicillin resistant Staphylococcus aureus ATCC BAA-1556 after 24 hrs in presence of 1 mM of by microtiter plate method; format: functional
Staphylococcus aureus [24] = assay: Antibacterial activity against methicillin resistant Staphylococcus aureus ATCC BAA-1556 after 24 hrs in presence of 2 mM of CaCl2 by microtiter plate method; format: functional
Staphylococcus aureus [25] = assay: Antibacterial activity against methicillin resistant Staphylococcus aureus ATCC BAA-1556 after 24 hrs in presence of fetal bovine serum by microtiter plate method; format: functional
Lipid bilayer [26] = assay: Membrano-lytic effect in bacterial inner membrane mimic DOPC/DOPG (7:3) large unilamellar vesicles assessed as calcein leakage measured upto 100 mins for every 10 mins by multimode microplate reader assay; format: cell membranes; conditions: dose 5-50 µg/ml, DDE = dose-dependent effect
Escherichia coli [27] = assay: Bactericidal activity against Escherichia coli ATCC BAA-2452 assessed as reduction of bacterial growth at 4 times MIC by counting formed colonies; format: functional, organism-based; conditions: time <= 4.0 hrs, TDE = time-dependent effect
Escherichia coli [28] = assay: Bactericidal activity against Escherichia coli ATCC BAA-2452 assessed as reduction of bacterial growth at MIC by counting formed colonies; format: functional, organism-based; conditions: time <= 4.0 hrs, TDE = time-dependent effect
Staphylococcus aureus [29] = assay: Bactericidal activity against methicillin resistant Staphylococcus aureus ATCC BAA-1556 assessed as reduction of bacterial growth at 4 times MIC by counting formed colonies; format: functional, organism-based; conditions: time <= 4.0 hrs, TDE = time-dependent effect
Staphylococcus aureus [30] = assay: Bactericidal activity against methicillin resistant Staphylococcus aureus ATCC BAA-1556 assessed as reduction of bacterial growth at MIC by counting formed colonies; format: functional, organism-based; conditions: time <= 4.0 hrs, TDE = time-dependent effect
Staphylococcus aureus [31] = assay: Bactericidal activity against methicillin resistant Staphylococcus aureus ATCC BAA-1556 assessed as time required for complete reduction of bacterial growth at MIC by counting formed colonies; format: functional
Staphylococcus aureus [32] = assay: Bactericidal activity against methicillin resistant Staphylococcus aureus ATCC BAA-1556 assessed as time required for complete reduction of bacterial growth at 4 times MIC by counting formed colonies; format: functional
Lipid bilayer [33] = assay: Membrano-lytic effect in mammalian membrane mimic DOPC/cholesterol (10:1) large unilamellar vesicles assessed as calcein leakage measured at 50 microg/ml measured upto 100 mins for every 10 mins by multimode microplate reader assay; format: cell membranes; conditions: dose 50.0 µg/ml
Lipid bilayer [34] = assay: Membrano-lytic effect in bacterial inner membrane mimic DOPC/DOPG (7:3) large unilamellar vesicles assessed as calcein leakage measured at 50 microg/ml, incubated for 100 mins by multimode microplate reader assay; format: cell membranes; conditions: dose 50.0 µg/ml
[35] = Staphylococcus aureus, ATCC BAA-1556, 24 h, read-out: MIC
[36] = Staphylococcus aureus, ATCC 29213, read-out: MIC

Compound `N=C(N)NCCC[C@@H]1NC(=O)[C@H](CCCNC(=N)N)NC(=O)[C@H](C(c2ccccc2)c2ccccc2)NC(=O)[C@H](C(c2ccccc2)c2ccccc2)NC(=O)[C@H](C(c2ccccc2)c2ccccc2)NC(=O)[C@H](CCCNC(=N)N)NC1=O` (cyclo([Dip][Dip][Dip]RRR)) has an HC50 at 2 h [1] of 45 µg/mL, an MIC (Staphylococcus aureus [2]; [35]) of 3.1 µg/mL (≈ 2.72 µM) and an MIC (Staphylococcus aureus [3]; [36]) of 3.1 µg/mL (≈ 2.72 µM). For the same compound, the MIC (Pseudomonas aeruginosa [4]; Pseudomonas aeruginosa, ATCC 27883, 24 h, read-out: MIC) was 12.5 µg/mL (≈ 11 µM), the MIC (Escherichia coli [5]; Escherichia coli, ATCC 25922, 24 h, read-out: MIC) was 12.5 µg/mL (≈ 11 µM) and the MIC (Enterococcus faecium [6]) was 3.1 µg/mL (≈ 2.72 µM). The MIC (Enterococcus faecium [7]) was 6.2 µg/mL (≈ 5.45 µM), the MIC (Enterococcus faecalis [8]) was 12.5 µg/mL (≈ 11 µM) and the MIC (Enterococcus faecalis [9]) was 12.5 µg/mL (≈ 11 µM). It also gave an MIC (Streptococcus pneumoniae [10]) of 50 µg/mL (≈ 43.9 µM), an MIC (Streptococcus pneumoniae [11]) of 25 µg/mL (≈ 22 µM) and an MIC (Bacillus subtilis) of 3.1 µg/mL (≈ 2.72 µM). It also gave an MIC (Bacillus cereus) of 6.2 µg/mL (≈ 5.45 µM), an MIC (Escherichia coli [12]) of 25 µg/mL (≈ 22 µM) and an MIC (Klebsiella pneumoniae [13]) of over 50 µg/mL. For the same compound, the MIC (Klebsiella pneumoniae [14]) was 12.5 µg/mL (≈ 11 µM), the MIC (Acinetobacter baumannii) was 25 µg/mL (≈ 22 µM) and the MIC (Pseudomonas aeruginosa [15]) was 50 µg/mL (≈ 43.9 µM). The MIC (Pseudomonas aeruginosa [16]) was 25 µg/mL (≈ 22 µM), the Ratio [17] was 2 and the Ratio [18] was 2.
For `N=C(N)NCCC[C@@H]1NC(=O)[C@H](CCCNC(=N)N)NC(=O)[C@H](Cc2ccc3ccccc3c2)NC(=O)[C@H](Cc2ccc3ccccc3c2)NC(=O)[C@H](CCCNC(=N)N)NC(=O)[C@H](CCCNC(=N)N)NC(=O)[C@H](Cc2ccc3ccccc3c2)NC1=O` (stereo in doubt; 19C), the HC50 (Erythrocyte) was 110 µg/mL, the MIC (Staphylococcus aureus [2]) was 6.2 µg/mL (≈ 5.1 µM) and the MIC (Staphylococcus aureus [3]) was 6.2 µg/mL (≈ 5.1 µM). The MIC (Pseudomonas aeruginosa [4]; 24 h) was 50 µg/mL (≈ 41.1 µM) and the MIC (Escherichia coli [5]; 24 h) was 50 µg/mL (≈ 41.1 µM).
`CCCCCCCCCC(=O)N[C@@H](Cc1c[nH]c2ccccc12)C(=O)N[C@H](CC(N)=O)C(=O)N[C@@H](CC(=O)O)C(=O)N[C@@H]1C(=O)NCC(=O)N[C@@H](CCCN)C(=O)N[C@@H](CC(=O)O)C(=O)N[C@H](C)C(=O)N[C@@H](CC(=O)O)C(=O)NCC(=O)N[C@H](CO)C(=O)N[C@@H]([C@H](C)CC(=O)O)C(=O)N[C@@H](CC(=O)c2ccccc2N)C(=O)O[C@@H]1C` gave an MIC (Staphylococcus aureus [2]; [35]) of 1.5 µg/mL (≈ 0.926 µM), an MIC (Staphylococcus aureus [3]; [36]) of 0.7 µg/mL (≈ 0.432 µM) and an MIC (Enterococcus faecium [6]) of 1.5 µg/mL (≈ 0.926 µM). It also gave an MIC (Enterococcus faecium [7]) of 6.25 µg/mL (≈ 3.86 µM), an MIC (Enterococcus faecalis [8]) of 6.25 µg/mL (≈ 3.86 µM) and an MIC (Enterococcus faecalis [9]) of 12.5 µg/mL (≈ 7.71 µM). It also gave an MIC (Streptococcus pneumoniae [10]) of 12.5 µg/mL (≈ 7.71 µM), an MIC (Streptococcus pneumoniae [11]) of 12.5 µg/mL (≈ 7.71 µM) and an MIC (Bacillus subtilis) of 0.7 µg/mL (≈ 0.432 µM). It also gave an MIC (Bacillus cereus) of 1.5 µg/mL (≈ 0.926 µM), an MBC (Staphylococcus aureus [19]) of 6.2 µg/mL (≈ 3.83 µM) and an MIC (Staphylococcus aureus [20]) of 0.7 µg/mL. The MIC (Staphylococcus aureus [21]) was 1.5 µg/mL, the MIC (Staphylococcus aureus [22]) was 1.5 µg/mL and the MIC (Staphylococcus aureus [23]) was 3.1 µg/mL. For the same compound, the MIC (Staphylococcus aureus [24]) was 3.1 µg/mL, the MIC (Staphylococcus aureus [25]) was 3.1 µg/mL and the Activity (Lipid bilayer [26]) was “Dde”. The Activity (Escherichia coli [27]) was “Tde”, the Activity (Escherichia coli [28]) was “Tde” and the Activity (Staphylococcus aureus [29]) was “Tde”. The Activity (Staphylococcus aureus [30]) was “Tde”, the Activity (Staphylococcus aureus [31]) was “Active” and the Activity (Staphylococcus aureus [32]) was “Active”. For the same compound, the Activity (Lipid bilayer [33]) was 5% and the Activity (Lipid bilayer [34]) was 27%.
